Series [1] in a line: Study 5: 75 mg/mL Formula (VI) in WFI at various pH under ICH storage temperatures. Format: physicochemical. Particulars: for pH change: 75 mg/mL at pH 6. As for the experimental part:
It was noticeable from Study 2 that drug stability was dependent on the pH. The lower the pH, the greater the chemical stability. […] An accelerated 60° C. storage temperature was also accessed in order to compare and generate a pH-stability profile of drug in water.
(§1) About 10 g of WFI was placed in the container including a stir bar. […] The pH was measured and the solution was mixed at room temperature for 16-24 hours. At the end of the 16-24 hour hold/mix, the pH of solution was adjusted to pH 4.0 with either HCl or NaOH and mixed for about 15 minutes. The solution was filtered through a PVDF, 0.22 μm filter by discarding about 1 mL prior to placing about 4-5 mL into each of four separate clean containers (A, B, C, D). The pH of the samples was then measured. Solution A was stored at 2-8° C., solution B at 25° C., solution C at 30° C. and solution D at 40° C. A sample was removed from each container after 3, 7 and 14 days the pH measured.
as §1, with “5.0” for “4.0”
as §1, with “6.0” for “4.0”

Series [2] in a line: Study 4: 75 mg/mL Formula (VI) in WFI at pH 7.0 under ICH storage temperatures. Format: physicochemical. The conditions noted are these: after 1 month. As for the experimental part:
as §1, with “7.0” for “4.0”, “A sample was removed from each container after 3, 7 and 14 days the pH measured.” left out

[3] abbreviates: 75 mg/mL, 60° C. for 14 days, within pH profile range 4.1-6.5.

Regarding “[5,10,15,20-tetrakis(1,3-diethylimidazolium-2-yl)porphyrinato]manganese(III) chloride hydrate complex [Formula (VI)]”, the pH variation in series [1] (75 mg/mL at pH 4 and 5, all storage conditions, after 14 days) was at most 0.1 pH unit. In addition, the pH decrease in series [1] (75 mg/mL at pH 5, 60° C., after 14 days) is recorded as about 0.2 pH units; in series [2] (75 mg/mL pH 7, 25° C.), “approximately 0.3 pH units”; in series [2] (75 mg/mL pH 7, 30° C.), about 0.5 pH units; in series [2] (75 mg/mL pH 7, 40° C.), about 1.1 pH units. For the same substance, the pH change is listed as 0.7 pH units in series [1] (2-8° C., after 14 days); 0.5 pH units in series [1] (25° C., after 14 days); −0.1 pH units in series [1] (40° C., after 14 days); −0.9 pH units in series [1] (60° C., after 14 days); at most 0.1 pH unit in series [2] (75 mg/mL pH 7, refrigerated sample). In addition, the “change of purity assays” value in series [1] (75 mg/mL in water, samples at pH between 4.1 and 6.8, after 14 days) is given as “No significant changes”. For the same substance, the “decrease in drug purity assay” value in series [1] (75 mg/mL, 60° C. for 14 days, increase of pH between 4.1 and 6.5) was about 5%. For the same substance, the “increase of degradant at RRT 1.56-1.62” value in series [1] (setting [3]) is recorded as about 8 folds. Moreover, the “level of degradant at RRT 1.56-1.62” value in series [1] (setting [3]) is recorded as 0.4-3.2%. In series [1] (60° C. samples, between pH 4.1 and 5.2), the “decrease of purity assay” value is about 3%. The osmolality in series [1] (pH 4 sample, 60° C. storage) is on record as 292 mOsm/kg; in series [1] (pH 4 samples, 2-8, 25 and 40° C., after 14 days) it was 277-280 mOsm/kg; in series [1] (pH 5 sample, 60° C. storage), 302 mOsm/kg; in series [1] (pH 5 samples, 2-8, 25 and 40° C., after 14 days), 273-275 mOsm/kg; in series [1] (pH 6 sample, 60° C. storage), 283 mOsm/kg; in series [1] (pH 6 samples, 2-8, 25 and 40° C., after 14 days) it was 269-272 mOsm/kg. In series [2] (75 mg/mL pH 7, all samples), the osmolality was 270-276 mOsm/kg. Also, the chemical stability entry in series [2] (75 mg/mL in water pH 7, each storage condition) is reported as “No significant change”.

Values taken from patent US20160333019A1, “SYNTHESIS AND FORMULATIONS OF PORPHYRIN COMPOUNDS” (Aeolus Sciences, Inc., priority 2013, published 2016).
